Source: PMC9775471, “Anticancer Activity of Thiophene Carboxamide Derivatives as CA-4 Biomimetics: Synthesis, Biological Potency, 3D Spheroid Model, and Molecular Dynamics Simulation” (Biomimetics, 2022)
Converted amounts (≈) assume the structure as drawn. Like-named read-outs stand apart in the source and are kept apart here. Values belong to the compound of their own block, whether it stands above or below them.

Assays:
Hep3B liver cancer cells = assay: Hepatocellular carcinoma spheroids formation test (3D); assay type: cell-based; conditions: 24 h; for Effect on Hep3B spheroid formation: 17 μg/mL, compared to non-treated cells
Protocol: Hep3B liver cancer cells (4 × 10^3 per well) were seeded in round-bottomed supra-low attachment well plates over 24 h in the presence of 2b or 2e (17 μg/mL). Doxorubicin, a chemotherapeutic medication, was used as a positive control (100 μg/mL). Images of the formed spheroids/clusters were captured at 0 h and 24 h using an inverted microscope with a final magnification of 100×. The photographs of the spheroids were assessed and quantified using ImageJ software.

[1] = tested on: CaCo-2 (colorectal adenocarcinoma) cells; assay: MTS cytotoxicity assay, CaCo-2; assay type: cell-based; conditions: Homo sapiens, concentrations 1, 10, 50, 100, 300 µM, mean ± SD
Protocol: (§1) Several tumor cell lines were used in this study including HeLa (cervical adenocarcinoma) HepG2, and Hep3B (HCC); B16F1 (melanoma); MCF-7 (breast carcinoma); Colo205 (colon adenocarcinoma); and CaCo-2 (colorectal adenocarcinoma), in addition to two normal cell lines LX-2 (human hepatic stellate) and Hek293t (kidney cell lines). All evaluated cells were incubated in RPMI-1640 medium and supplemented by 1% of Penicillin/Streptomycin antibiotics, 1% of l-glutamine, and 10% fetal bovine serum. The selected cells were cultivated at 37 °C in a wet environment containing 5% CO2.. In a 96-well plate, the seeding of cells was conducted as 2.5 × 10^4 cells per well. After 72 hr, the cells were confluent, the media was refreshed, and after that, all cells were incubated by several compounds’ concentrations (1, 10, 50, 100, and 300 µM). The viability of cells was investigated by the Cell Tilter 96® Aqueous One Solution Cell Proliferation (MTS) assay regarding the manufacturer’s instructions (Promega Corporation, Madison, WI). In the last step, 20 μL of MTS per 100 μL of media were added to each well and kept at 37 °C; after that at 490 nm wavelength the absorbance was collected.

Hep3B (HCC) cells = assay: MTS cytotoxicity assay, Hep3B; assay type: cell-based; conditions: Homo sapiens, concentrations 1, 10, 50, 100, 300 µM, mean ± SD
Protocol: as §1

[2] = tested on: Colo205 (colon adenocarcinoma) cells; assay: MTS cytotoxicity assay, Colo205; assay type: cell-based; conditions: Homo sapiens, COLO 205, concentrations 1, 10, 50, 100, 300 µM, mean ± SD
Protocol: as §1

[3] = tested on: LX-2 (human hepatic stellate) cells; assay: MTS cytotoxicity assay, normal cell line LX-2; assay type: cell-based; conditions: concentrations 1, 10, 50, 100, 300 µM
Protocol: as §1

B16F1 (melanoma) cells = assay: MTS cytotoxicity assay, B16F1; assay type: cell-based; conditions: Mus musculus, B16-F1, concentrations 1, 10, 50, 100, 300 µM, mean ± SD
Protocol: as §1

[4] = tested on: HeLa (cervical adenocarcinoma) cells; assay: MTS cytotoxicity assay, HeLa; assay type: cell-based; conditions: Homo sapiens, concentrations 1, 10, 50, 100, 300 µM, mean ± SD
Protocol: as §1

[5] = tested on: MCF-7 (breast carcinoma) cells; assay: MTS cytotoxicity assay, MCF-7; assay type: cell-based; conditions: Homo sapiens, MCF7, concentrations 1, 10, 50, 100, 300 µM, mean ± SD
Protocol: as §1

HepG2 (HCC) cells = assay: MTS cytotoxicity assay, HepG2; assay type: cell-based; conditions: Homo sapiens, concentrations 1, 10, 50, 100, 300 µM, mean ± SD
Protocol: as §1

[6] = tested on: Hek293t (kidney cell lines); assay: MTS cytotoxicity assay, normal cell line Hek293t; assay type: cell-based; conditions: Homo sapiens, HEK-293T, concentrations 1, 10, 50, 100, 300 µM, mean ± SD
Protocol: as §1

Hep3B (HCC) [7] = conditions: cited from earlier work
[8] = cited from earlier work
[9] = cited from earlier work; remark: listed apart in the source
[10] = cited from earlier work; remark: listed apart in the source
Hep3B (HCC) [11] = tested on: Hep3B (HCC); set-up: method as in PMID 33763478; conditions: cited from earlier work

SMILES: COc1cc(NC(=O)c2ccc(-c3ccc(F)cc3)s2)cc(OC)c1OC [2b, 5-(4-fluorophenyl)-N-(3,4,5-trimethoxyphenyl) thiophene-2-carboxamide]
Effect on Hep3B spheroid formation (Hep3B liver cancer cells): significantly smaller spheroid | melting point: 190.8 to 192 °C | IC50 [1]: > 300 µM | IC50 (Hep3B (HCC) cells): 5.46 ± 1.47 µM | IC50 [2]: 35.1 ± 2.05 µM | IC50 [3]: > 300 µM | IC50 (B16F1 (melanoma) cells): > 300 µM | IC50 [4]: 205 µM | IC50 [5]: 29.7 ± 2.74 µM | IC50 (HepG2 (HCC) cells): > 300 µM | IC50 [6]: 278.1 ± 2.75 µM

SMILES: O=C(Nc1ccccc1)c1ccc(-c2ccc(F)cc2)s1 [2a, 5-(4-fluorophenyl)-N-phenylthiophene-2-carboxamide]
melting point: 203.5 to 205 °C | IC50 [1]: > 300 µM | IC50 (Hep3B (HCC) cells): 28 ± 2.05 µM | IC50 [2]: > 300 µM | IC50 [3]: > 300 µM | IC50 (B16F1 (melanoma) cells): > 300 µM | IC50 [4]: > 300 µM | IC50 [5]: > 300 µM | IC50 (HepG2 (HCC) cells): 283.7 ± 1.79 µM | IC50 [6]: > 300 µM

SMILES: COc1ccc(NC(=O)c2c(-c3ccc(F)cc3)noc2C)cc1OC [St.2, N-(3,4-dimethoxyphenyl)-3-(4-fluorophenyl)-5-methylisoxazole-4-carboxamide]
IC50 against Hep3B (Hep3B (HCC) [7]; earlier fluorophenyl-isoxazole series, para halogen): 7.66 µg/mL (≈ 21.5 µM)

SMILES: COc1ccc(/C=C\c2cc(OC)c(OC)c(OC)c2)cc1O [CA-4, Combretastatin A-4]
Water solubility [8]: poor | Chemical stability [9]: chemical instability | Plasma half-life [10]: short

SMILES: Cc1onc(-c2c(F)cccc2Cl)c1C(=O)Nc1ccc(C(C)(C)C)cc1 [St.3, N-(4-(tert-butyl)phenyl)-3-(2-chloro-6-fluorophenyl)-5-methylisoxazole-4-carboxamide]
IC50 against Hep3B (Hep3B (HCC) [7]; earlier series with two halogens at ortho positions): 2.77 µg/mL (≈ 7.16 µM)

SMILES: COc1ccc(OC)c(NC(=O)c2c(-c3ccccc3Cl)noc2C)c1 [St.1, 3-(2-chlorophenyl)-N-(2,5-dimethoxyphenyl)-5-methylisoxazole-4-carboxamide]
Cell cycle effect (Hep3B (HCC) [11]): cell cycle arrest in the G2/M phase | IC50 against Hep3B (Hep3B (HCC) [7]; earlier isoxazole-carboxamide series, ortho halogen): 23 µg/mL (≈ 61.7 µM)

SMILES: COc1cccc2c1C(=O)c1c(O)c3c(c(O)c1C2=O)C[C@@](O)(C(=O)CO)C[C@@H]3O[C@H]1C[C@H](N)[C@H](O)[C@H](C)O1 [DOX, Doxorubicin, reference compound]
Effect on Hep3B spheroid formation (positive control) (Hep3B liver cancer cells; 100 μg/mL): no recognized sphere formation | IC50 [1]: < 1 µM | IC50 (Hep3B (HCC) cells): 1.21 ± 1 µM | IC50 [2]: < 1 µM | IC50 [3]: < 1 µM | IC50 (B16F1 (melanoma) cells): < 1 µM | IC50 [4]: 1.55 ± 1.35 µM | IC50 [5]: < 1 µM | IC50 (HepG2 (HCC) cells): 1.6 ± 0.67 µM | IC50 [6]: 1.24 ± 0.87 µM

Second part, led by results:

melting point: 156.5 to 157 °C
SMILES: COc1cc(NC(=O)c2ccc(-c3ccc(F)cc3)s2)cc(OC)c1 [2d, N-(3,5-dimethoxyphenyl)-5-(4-fluorophenyl) thiophene-2-carboxamide]
IC50 [1]: > 300 µM | IC50 (Hep3B (HCC) cells): 8.85 ± 1.45 µM | IC50 [2]: > 300 µM | IC50 [3]: > 300 µM | IC50 (B16F1 (melanoma) cells): > 300 µM | IC50 [4]: > 300 µM | IC50 [5]: > 300 µM | IC50 (HepG2 (HCC) cells): > 300 µM | IC50 [6]: > 300 µM

melting point: 218.5 to 220.4 °C
SMILES: CC(C)(C)c1ccc(NC(=O)c2ccc(-c3ccc(F)cc3)s2)cc1 [2c, N-(4-(tert-butyl)phenyl)-5-(4-fluorophenyl) thiophene-2-carboxamide]
IC50 [1]: > 300 µM | IC50 (Hep3B (HCC) cells): 189 ± 2.78 µM | IC50 [2]: > 300 µM | IC50 [3]: > 300 µM | IC50 (B16F1 (melanoma) cells): > 300 µM | IC50 [4]: > 300 µM | IC50 [5]: > 300 µM | IC50 (HepG2 (HCC) cells): > 300 µM | IC50 [6]: > 300 µM

melting point: 185.5 to 187.5 °C
SMILES: COc1cc(NC(=O)c2ccc(-c3ccc(F)cc3)s2)c(OC)cc1Cl [2e, N-(4-chloro-2,5-dimethoxyphenyl)-5-(4-flurophenyl)thiophene-2-carboxamide]
Effect on Hep3B spheroid formation (Hep3B liver cancer cells): inhibited spheroid formation | IC50 [1]: 82.9 ± 2.45 µM | IC50 (Hep3B (HCC) cells): 12.6 ± 2.57 µM | IC50 [2]: 74.8 ± 1.45 µM | IC50 [3]: > 300 µM | IC50 (B16F1 (melanoma) cells): 112 ± 1.99 µM | IC50 [4]: 39.6 ± 1.88 µM | IC50 [5]: 42.5 ± 2.59 µM | IC50 (HepG2 (HCC) cells): 18.2 ± 0.78 µM | IC50 [6]: 105 ± 1.08 µM
